In US20250382298A1, “NITROGEN-CONTAINING COMPOUND AND USE THEREOF” (SUZHOU GENHOUSE BIO CO., LTD., priority 2022, published 2025):

Columns and labels:
[1] = tested on: OVCAR3 cells; experiment: Detection of cell proliferation activity by CCK8 method (OVCAR3); type: cell-based; details: Homo sapiens, OVCAR-3, CCK8, 96 h
Excerpt: (§1) This assay can be used to examine the potency of compounds in inhibiting the proliferation of tumor cells (OVCAR3, HT-29, BT-549, HCT-116). A lower IC50 value indicates high potency of the compound as a KIF18A inhibitor in the following assay setup,
(§2) McCoy's 5A medium purchased from Sangon Biotech; CCK8 kit purchased from Beyotime; OVCAR3, HT-29, HCT-116, and BT-549 cells purchased from Shanghai Fuheng Biotechnology Co., Ltd.; multimode microplate reader (Thermo).
(§3) Cells at the logarithmic growth phase were taken, digested with a cell lysis buffer (trypsin), centrifuged, counted, and seeded into a 96-well plate at an appropriate cell density (BT549: 1500 cells/well in 1640 medium. HT-29 and HCT-116: 2000 cells/well in McCoy's 5A medium), with 180 μL per well, for a total of 60 wells. The surrounding wells were filled with an equal amount of PBS to prevent water evaporation from the edge wells. The next day after cell plating, the test compounds at different concentration gradients (with an initial final concentration of 10 μM, diluted in a 1:5 gradient to obtain 9 concentration gradients) were added to the wells. Three replicate wells were set up for each concentration point, and a corresponding DMSO negative control group was also set up. Detection: After 96 h of drug treatment, the test cell culture plate was removed from the incubator. All the liquid in the 96-well plate was aspirated, and 100 μL of medium containing 10% CCK8 solution was added to each well. The plate was then incubated at 37° C. for 2 h (the OD450 of the DMSO group reached 1.5 or more), and the absorbance at 450 nm was measured using a microplate reader
(§4) After the background value was subtracted from the measurement for each well, the inhibition rate was calculated. Inhibition Rate (%)=(1−Sample/Vehicle)×100. Sample is the luminescence value of the drug treatment group, and Vehicle is the luminescence value of the DMSO control group. A sigmoidal dose-survival rate curve was plotted using a non-linear regression model in the GraphPad Prism 7.0 software, and the IC50 values were calculated.

[2] = tested on: HCT-116 cells; experiment: Detection of cell proliferation activity by CCK8 method (HCT-116); type: cell-based; details: Homo sapiens, CCK8, 96 h
Excerpt: as §1, §2, §3, §4

[3] = tested on: BT-549 cells; experiment: Detection of cell proliferation activity by CCK8 method (BT-549); type: cell-based; details: Homo sapiens, CCK8, 96 h
Excerpt: as §1, §2, §3, §4

[4] = tested on: HT-29 cells; experiment: Detection of cell proliferation activity by CCK8 method (HT-29); type: cell-based, human; details: Homo sapiens, CCK8, 96 h
Excerpt: as §1, §2, §3, §4

[5] = tested on: HCT-116 cells; experiment: Mitotic index analysis, pH3 expression in HCT-116 cells; type: cell-based; details: Homo sapiens, 24 h treatment
Experimental: (§5) HCT-116 and HT-29 cells at the logarithmic growth phase were taken, digested with a cell lysis buffer (trypsin), centrifuged, counted, and seeded into a 96-well plate at an appropriate cell density (20000 cells/well), with 100 μL per well. The surrounding wells were filled with an appropriate amount of PBS to prevent water evaporation. The next day, the cells were treated with the compounds at different concentrations (with a starting concentration of 10 μM, 3-fold diluted to obtain 9 concentration gradients). After 24 h, the medium was aspirated, and the cells were washed twice with 100 μL of PBS. The cells were then fixed with 4% paraformaldehyde and incubated at room temperature for 15 min. The fixative solution was discarded, and the cells were washed with PBS. Then, 150 μL of specialized blocking solution (containing 1% Triton-100) was added to each well for blocking at room temperature for 2 h, and the plate was washed with PBS to remove excess blocking solution. Anti-phistone H3 (pH3) was diluted at a ratio of 1:1000 with a blocking solution containing 0.033% Triton-100, and a blank control group was set up. Then, incubation was performed at 4° C. overnight. The next day, the plate was washed twice with 1×PBST. Anti-rabbit-IgG (H+L) (CST) and DRAQ5 (Thermofisher) were each diluted at an appropriate ratio with a blocking solution containing 0.033% Triton-100 (secondary antibody: 1:2000; DRAQ5: 1:10000). Then, incubation was performed at room temperature for 2 h. The plate was washed twice with 1×PBST and once with PBS. Fluorescence signals at 700 nm and 800 nm were detected using a Li—COR Odyssey two-color near-infrared laser imager. Calculation was performed as follows: pH3 expression (%)=(Cmpd dose/DMSO control)×100. Cmpd dose is the value of the drug treatment group, and DMSO control is the value of the DMSO control group. The EC50 values were determined by fitting using the GraphPad Prism 7.0 software.

[6] = tested on: HT-29 cells; experiment: Mitotic index analysis, pH3 expression in HT-29 cells; type: cell-based, human; details: Homo sapiens, 24 h treatment
Experimental: as §5

IC50 [1] [nM]	IC50 [2] [nM]	IC50 [3] [nM]	IC50 [4] [nM]	EC50 [5] [nM]	EC50 [6] [nM]	SMILES
733	> 10000	1900	1640	> 10000		Cc1cc(NC(=O)c2ccc(NS(=O)(=O)CCO)cc2N2Cc3ccccc3C2)nc(N2CCC(F)(F)CC2)n1 [Compound 44]
1850	> 10000			> 10000		O=C(Nc1cn2c(C(F)(F)F)cnc2c(N2CCC(F)(F)CC2)n1)c1ccc(NS(=O)(=O)CCO)cc1N1CCC2(CC1)CC2 [Compound 35]
37.9	> 10000	90.4	97.1	> 10000	119	CS(=O)(=O)Nc1ccc(C(=O)Nc2cn3cncc3c(N3CCC(F)(F)CC3)n2)c(N2CCC3(CC2)CC3)c1 [Compound 58]
18.6	> 10000	90.1	71.5	> 10000	34.5	CS(=O)(=O)Nc1ccc(C(=O)Nc2cc3nn[nH]c3c(N3CCC(F)(F)CC3)n2)c(N2CC3CCC(C3)C2)c1 [Compound 66]
47.9		156	82.4			CS(=O)(=O)c1ccc(C(=O)Nc2cn3ccnc3c(N3CCC(F)(F)CC3)n2)c(N2CCC3(CC2)CC3)c1 [Compound 74]
283	> 10000	1600	520	> 10000		O=C(Nc1cn2cc(C(F)(F)F)nc2c(N2CCC(F)(F)CC2)n1)c1ccc(NS(=O)(=O)CCO)cc1N1CCC2(CC1)CC2 [Compound 36]
10.1	> 10000	33.7	15.6	> 10000	10.3	CS(=O)(=O)Nc1ccc(C(=O)Nc2cc3cc[nH]c3c(N3CCC(F)(F)CC3)n2)c(N2CC3CCC(C3)C2)c1 [Compound 63]
51.9	> 10000	175	55.5	> 10000	31.5	O=C(Nc1cc2ccsc2c(N2CCC(F)(F)CC2)n1)c1ccc(NS(=O)(=O)CCO)cc1N1CC2CCC(C2)C1 [Compound 50]
117	> 10000	736	518	> 10000	434	CC1(C)C2CN(c3cc(NS(=O)(=O)CCO)ccc3C(=O)Nc3cn4ccnc4c(N4CCC(F)(F)CC4)n3)CC21 (stereo not drawn) [Compound 20]
83.2	> 10000	304	229	> 10000	255	Cc1cnc2c(N3CCC(F)(F)CC3)nc(NC(=O)c3ccc(NS(=O)(=O)CCO)cc3N3CCC4(CC3)CC4)cn12 [Compound 42]
5	> 10000	39.7	17.4	> 10000	7.8	O=C(Nc1cc2cn[nH]c2c(N2CCC(F)(F)CC2)n1)c1ccc(NS(=O)(=O)CCO)cc1N1CC2CCC(C2)C1 [Compound 71]
63.2	> 10000	240	144	> 10000	124	CS(=O)(=O)Nc1ccc(C(=O)Nc2cn3cncc3c(N3CCC(F)(F)CC3)n2)c(N2CC3CCC(C3)C2)c1 [Compound 60]
13.9	> 10000	61.8	88.1	> 10000	36.1	O=C(Nc1cc2nn[nH]c2c(N2CCC(F)(F)CC2)n1)c1ccc(NS(=O)(=O)CCO)cc1N1CC2CCC(C2)C1 [Compound 67]
27.5	> 10000	83	81.6	> 10000	49.1	O=C(Nc1cn2cncc2c(N2CCC(F)(F)CC2)n1)c1ccc(NS(=O)(=O)CCO)cc1N1CC2CCC(C2)C1 [Compound 59]
54.3	> 10000	170	94	> 10000	80.8	CS(=O)(=O)Nc1ccc(C(=O)Nc2cc3ccsc3c(N3CCC(F)(F)CC3)n2)c(N2CCC3(CC2)CC3)c1 [Compound 45]
34.8	> 10000	75.8	55.6	> 10000	53	CS(=O)(=O)Nc1ccc(C(=O)Nc2cn3c(F)cnc3c(N3CCC(F)(F)CC3)n2)c(N2CCC3(CC2)CC3)c1 [Compound 46]
10.1	> 10000	26.6	28.1	> 10000		O=C(Nc1cc2nccnc2c(N2CCC(F)(F)CC2)n1)c1ccc(NS(=O)(=O)CCO)cc1N1CCC2(CC1)CC2 [Compound 39]
11.7	> 10000	54.7	26.7	> 10000	10.8	O=C(Nc1cn2ncnc2c(N2CCC(F)(F)CC2)n1)c1ccc(NS(=O)(=O)CCO)cc1N1CC2CCC(C2)C1 [Compound 54]
10.2	> 10000	42.4	55.2	> 10000	26.8	O=C(Nc1cn2cnnc2c(N2CCC(F)(F)CC2)n1)c1ccc(NS(=O)(=O)CCO)cc1N1CC2CCC(C2)C1 [Compound 64]
23.4	> 10000	65.2	94.6	> 10000	30	O=S(=O)(CCO)Nc1cc(N2CCC3(CC2)CC3)c2c(Nc3cn4ccnc4c(N4CCC(F)(F)CC4)n3)ncnc2c1 [Compound 43]
12.2	> 10000	26.3	17.1	> 10000	12.2	Cn1ncc2cc(NC(=O)c3ccc(NS(C)(=O)=O)cc3N3CCC4(CC3)CC4)nc(N3CCC(F)(F)CC3)c21 [Compound 48]
6	> 10000	23.1	15.1	> 10000	7.7	O=C(Nc1cc2cc[nH]c2c(N2CCC(F)(F)CC2)n1)c1ccc(NS(=O)(=O)CCO)cc1N1CC2CCC(C2)C1 [Compound 62]
43.4	> 10000	90.9	157	> 10000	90.1	CS(=O)(=O)Nc1ccc(C(=O)Nc2cc3nn[nH]c3c(N3CCC(F)(F)CC3)n2)c(N2CCC3(CC2)CC3)c1 [Compound 68]
23.2	> 10000	30.9	59.6	> 10000	52.6	CS(=O)(=O)Nc1ccc(C(=O)Nc2cn3cnnc3c(N3CCC(F)(F)CC3)n2)c(N2CCC3(CC2)CC3)c1 [Compound 61]
